pIC50: −log10 of the molar value.
Experiments:
[1] = Metabolic stability test in human liver microsome; format: in vitro ADME; settings: 37° C., 5 μM
Experimental: Human liver microsome (manufactured by Xenotech, H0620, final concentration (after dilution), 0.2 mg protein/mL) was suspended in 100 mM potassium phosphate buffer (pH 7.4, containing β-nicotinamide adenine dinucleotide phosphate: 1.3 mM, D-glucose-6-phosphate: 3.3 mM, magnesium chloride: 3.3 mM, glucose-6-phosphate dehydrogenase: 0.45 U/mL), and further mixed with a test compound dissolved in MeCN/DMSO (95/5) (final concentration 5 μM). The mixture was incubated at 37° C. for 10 min and 60 min, acetonitrile containing formic acid (final concentration 0.1%) was added, and the mixture was centrifuged. The test compound (unmodified) in the supernatant was measured by high performance liquid chromatography/mass spectrometry (LC/MS) (manufactured by Waters, LC: Acquity UPLC, MS:SQ Detector or TQ Detector). The residual ratio (%) was calculated from the obtained measurement value.

[2] = Metabolic stability test in rat liver microsome; format: in vitro ADME
human PDHK2 (hPDHK2) = biological target: T1, human PDHK2 (hPDHK2) (Homo sapiens, UniProt Q15119); assay: Inhibitory action of PDHK2 activity in vitro (residual PDH activity after kinase reaction); format: biochemical
T1 construct: made in house; host or cells: Escherichia coli BL21(DE3), pET17b vector
Experimental: The inhibitory action of PDHK activity was assessed indirectly by measuring the residual PDH activity after kinase reaction in the presence of a test compound.
In the case of human PDHK2 (hPDHK2, Genbank Accession No. BC040478.1), modified hPDHK2 cDNA wherein FLAG-Tag sequence was added to the N terminus of hPDHK2 cDNA clone (pReceiver-M01/PDK2-GeneCopoeia) was prepared by PCR and cloned into a vector (pET17b-Novagen). The recombinant construct was transformed into Escherichia coli (DH5α-TOYOBO). The recombinant clones were identified, and plasmid DNA was isolated and subjected to the DNA sequence analysis. One clone which had the expected nucleic acid sequence was selected for expression work.
For expression of hPDHK2 activity, Escherichia coli strain BL21(DE3) cells (Novagen) were transformed with the pET17b vector containing modified hPDHK2 cDNA. The Escherichia coli were grown to an optical density 0.6 ([…]) at 30° C. Protein expression was induced by the addition of 500 μmol/L isopropyl-β-thiogalactopyranoside. The Escherichia coli were cultured at 30° C. for 5 hr and harvested by centrifugation. Resuspension of the Escherichia coli paste was disrupted by a microfluidizer. FLAG-Tagged protein was purified using FLAG affinity gel. The gel was washed with 20 mmol/L HEPES-NaOH, 500 mmol/L sodium chloride, 1% ethylene glycol, and 0.1% Pluronic F-68 (pH 8.0), and the binding protein was eluted with 20 mmol/L HEPES-NaOH, 100 μg/mL FLAG peptide, 500 mmol/L sodium chloride, 1% ethylene glycol, and 0.1% Pluronic F-68 (pH 8.0). The eluted fractions containing FLAG-Tagged protein were pooled, dialyzed against 20 mmol/L HEPES-NaOH, 150 mmol/L sodium chloride, 0.5 mmol/L EDTA, 1% ethylene glycol, and 0.1% Pluronic F-68 (pH 8.0), and preserved at −80° C.
0.05 U/mL PDH and 0.8 μg/mL hPDHK2 were mixed in a buffer (50 mmol/L 3-morpholinopropanesulfonic acid (pH 7.0), 20 mmol/L dipotassium hydrogen phosphate, 60 mmol/L potassium chloride, 2 mmol/L magnesium chloride, 0.4 mmol/L EDTA, and 0.2% Pluronic F-68, 2 mmol/L dithiothreitol), and the mixture was incubated at 4° C. overnight to obtain a PDH/hPDHK2 complex. The test compounds were diluted with DMSO. […] DMSO (1.5 μL) was added to control wells instead of the test compound. […] The mixture was incubated at room temperature for 90 min, and the residual PDH activity was measured. The absorbance at 340 nm before and after PDH reaction was measured using a microplate reader to detect NADH produced by the PDH reaction. The hPDHK2 inhibition rate (%) of the test compound was calculated from the formula [{(PDH activity of test compound−PDH activity of control)/PDH activity of blank−PDH activity of control)}×100].

[3] = biological target: T2, hERG current (hERG-transfected HEK293 cells) (Homo sapiens, UniProt Q12809); assay: hERG whole cell patch clamp test; format: cell-based; settings: whole cell patch clamp, hERG-transfected HEK293 cells
T2 construct: host or cells: HEK293
Experimental: (§1) Using human ether-a-go-go related gene (hERG)-transfected HEK293 cells (Cytomyx Limited), an influence on hERG current was examined according to the whole cell patch clamp technique. The hERG-transfected HEK293 cells were passaged using a CO2 incubator (BNA-111, TABAI ESPEC CORP.) under the set conditions of 37° C., 5% CO2, saturated humidity. Culture containers used were Collagen Type I Coated 75 cm^2 flask (4123-010, AGC TECHNO GLASS CO., Ltd.) and Collagen Type I Coated 35 mm culture dish (4000-010, AGC TECHNO GLASS CO., Ltd.). The culture medium used was E-MEM (Eagle Minimum Essential Medium (Earle's Salts, Nikken biomedical laboratory) added with 10% FCS (Fetal bovine serum, BioWest, L.L.C.) and 1% MEM Non-Essential Amino Acids Solution (NEAA, Invitrogen Corporation). Geneticin for the selection of hERG gene expressing cells was added thereto to a concentration of 400 μg/mL. As the cells for the measurement, 3×10^4 hERG-transfected HEK293 cells were plated on a 35 mm culture dish 4 to 7 days before measurement of the hERG current. The culture dish produced for the measurement contained the above-mentioned culture medium without geneticin (Invitrogen Corporation).
(§2) The highest evaluation concentration of each compound was determined from the highest concentration at which precipitation was not found in the standard extracellular fluid (NaCl: 140 mmol/L, KCl: 2.5 mmol/L, MgCl2: 2 mmol/L, CaCl2: 2 mmol/L, HEPES: 10 mmol/L, glucose: 10 mmol/L (adjusted to pH 7.4 with Tris-base)). As the application method, each solution to be applied was ejected from a Y-tube having a tip diameter of about 0.25 mm, which was adjacent (about 2 mm) to the cells, and applied to the cells. The ejection rate was about 0.4 mL/min.
(§3) The experiment was performed at room temperature under a phase contrast microscope. The 35 mm culture dish plated with the cells was set on a measurement apparatus, and the standard extracellular fluid was continuously applied to the cells from the Y-tube. A glass electrode for the measurement was filled with an intracellular fluid (Potassium Gluconate: 130 mmol/L, KCl: 20 mmol/L, MgCl2: 1 mmol/L, ATP-Mg: 5 mmol/L, EGTA: 3.5 mmol/L, HEPES: 10 mmol/L (adjusted to pH 7.2 with Tris-base)). A conventional whole cell patch clamp method was applied to the cells, and the maintenance electric potential was set to −80 mV. Under a fixed electric potential, the whole cell current was amplified by an amplifier for patch clamp (AXOPATCH-200B, Axon Instruments, Inc.), and the data was loaded into a computer (IMC-P642400, Intermedical Co., Ltd.) using a data acquisition analysis software (pCLAMP 9.2, Axon Instruments, Inc.).
(§4) The measurement of the hERG current was performed in the following two steps. In both cases, the hERG current was initiated by giving a command potential (maintenance electric potential −80 mV, prepulse+20 mV, 1.5 sec, test-pulse −50 mV, 1.5 sec).
(§5) Step (1): The above-mentioned command potential was given at 0.1 Hz for 2 min.
(§6) Step (2): The above-mentioned command potential was subjected to P/3 subtraction of pCLAMP 9.2 to remove leak current. This was repeated three times and an average thereof was taken as hERG current.
(§7) Subsequent to step (1), Step (2) was performed (about 3 min), and the maximum tail current obtained by applying a test-pulse to the hERG current obtained by the method of step (2) was taken as hERG current value. Hereafter, the operations of (1) and (2) were alternately repeated until completion of the experiment and the hERG current value was measured.
(§8) Stable hERG current value was recorded three times (about 10 min), and the standard extracellular fluid was instantaneously exchanged with each application fluid. The hERG current value was measured three times (about 10 min) in the same manner during perfusion of the application fluid, and the current value obtained by the 3rd measurement was taken as hERG current value after perfusion of the application fluid. […]

hERG = biological target: T3, hERG (Homo sapiens, UniProt Q12809); assay: hERG whole cell patch clamp test; format: cell-based; settings: human, HEK293 cells transfected with hERG, pH 7.4; concentration 10 μmol/L; read-out: hERG inhibition rate (%)
T3 construct: host or cells: HEK293
Experimental: as §1, §2, §3, §4, §5, §6, §7, §8

T3 sequence (Q12809 whole entry): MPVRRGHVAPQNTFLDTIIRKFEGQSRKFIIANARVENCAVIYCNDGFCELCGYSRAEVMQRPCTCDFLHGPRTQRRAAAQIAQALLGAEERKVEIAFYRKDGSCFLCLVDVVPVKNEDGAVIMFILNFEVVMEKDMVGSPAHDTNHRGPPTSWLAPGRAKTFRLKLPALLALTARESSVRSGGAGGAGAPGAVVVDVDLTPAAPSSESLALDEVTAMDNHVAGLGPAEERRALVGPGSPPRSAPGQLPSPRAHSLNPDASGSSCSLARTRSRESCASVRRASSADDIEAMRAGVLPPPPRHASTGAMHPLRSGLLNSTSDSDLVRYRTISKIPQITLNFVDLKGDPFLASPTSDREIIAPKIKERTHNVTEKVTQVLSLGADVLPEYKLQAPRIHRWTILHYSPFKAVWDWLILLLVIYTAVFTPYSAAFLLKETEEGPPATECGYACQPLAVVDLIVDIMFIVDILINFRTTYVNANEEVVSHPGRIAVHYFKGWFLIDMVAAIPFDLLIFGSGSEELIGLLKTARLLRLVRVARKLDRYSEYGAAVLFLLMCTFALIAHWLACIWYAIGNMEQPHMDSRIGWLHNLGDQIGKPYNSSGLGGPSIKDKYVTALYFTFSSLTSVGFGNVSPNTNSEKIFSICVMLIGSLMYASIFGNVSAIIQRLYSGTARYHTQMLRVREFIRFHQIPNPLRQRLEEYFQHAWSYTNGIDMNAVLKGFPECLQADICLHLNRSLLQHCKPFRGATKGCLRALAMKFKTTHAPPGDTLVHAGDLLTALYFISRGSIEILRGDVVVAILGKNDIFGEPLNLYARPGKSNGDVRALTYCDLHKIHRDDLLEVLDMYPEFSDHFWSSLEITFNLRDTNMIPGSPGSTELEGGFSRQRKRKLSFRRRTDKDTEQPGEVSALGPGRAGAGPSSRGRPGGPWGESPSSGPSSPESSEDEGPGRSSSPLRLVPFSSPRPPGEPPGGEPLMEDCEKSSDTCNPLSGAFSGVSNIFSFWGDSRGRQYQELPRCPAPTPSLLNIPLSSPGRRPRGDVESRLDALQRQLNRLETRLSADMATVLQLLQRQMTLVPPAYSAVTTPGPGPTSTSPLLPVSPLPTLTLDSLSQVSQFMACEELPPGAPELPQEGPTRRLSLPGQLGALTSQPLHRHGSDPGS
T2 sequence (Q12809 whole entry): as above

stability in liver microsome (residual ratio %) ([1]; 10 min): 34.8%
stability in liver microsome (residual ratio %) ([1]; 60 min): 0.0%
stability in liver microsome (residual ratio %) ([2]; 10 min): 24.8%
stability in liver microsome (residual ratio %) ([2]; 60 min): 0.0%
pIC50 (human PDHK2 (hPDHK2)): 8.29
SMILES: NC(=O)Cn1cc(-c2cc(OCCC34CC5CC(CC(O)(C5)C3)C4)cc3c2-c2ccccc2[C@]3(O)C(F)(F)F)cn1 [compound (A), 2-(4-{(9R)-9-Hydroxy-2-[2-(3-hydroxyadamantan-1-yl)ethoxy]-9-(trifluoromethyl)-9H-fluoren-4-yl}-1H-pyrazol-1-yl)acetamide, reference compound]
pIC50 [3]: < 5.00
inhibition at 10 μmol/L (hERG): 11.8%

Source: US20150018403A1, “FLUORENE-AMIDE COMPOUNDS AND PHARMACEUTICAL USE THEREOF” (JAPAN TOBACCO INC., priority 2013, published 2015)
